Reference: US10400010B2, “Structure-based peptide inhibitors of P53 aggregation as a new approach to cancer therapeutics” (THE REGENTS OF THE UNIVERSITY OF CALIFORNIA, priority 2013, dated 2019)
“Also recorded” adds a separate entry of the source.

Columns and labels:
[1] = biological target: T1, p53 aggregation (segment p53252-258, LTIITLE) (Homo sapiens, UniProt P04637); test: In vitro Thioflavin T aggregation assay; assay type: biochemical; settings: different concentrations, down to molar ratio 1 inhibitor to 10 p53 molecules
T1 construct: made in house; host or cells: chemical synthesis
Text: The aggregation of p53 is monitored via Thioflavin T assay: an increase in Thioflavin T fluorescence is detected over time due to the formation of increasing amounts of amyloid to which the dye can specifically bind. […] The sequence of this segment, LTIITLE, is SEQ ID NO: 21.
One representative in vitro assay is the thioflavin T assay shown in FIG. 3 (Naiki, H., Higuchi, K., Hosokawa, M., and Takeda, T. (1989) Fluorometric determination of amyloid fibrils in vitro using the fluorescent dye, thioflavine T. Anal. Biochem., 177, 244-249). The assay can be performed using a target sequence peptide, such as LTIITLE (SEQ ID NO: 21), or it can be performed using full-length p53 (such as recombinant p53). In both cases, the peptide (e.g. LTIITLE) (SEQ ID NO: 21) or the p53 is placed in solution with thioflavin T and increasing concentrations of inhibitor. The assay is performed in a multiwall plate (e.g. a 384 well plate). This dye is amyloid specific and is only fluorescent when bound to amyloid aggregates. The fluorescence is measured over time, e.g. with a plate reader. Inhibition is detected as a delay in the onset of aggregation and/or less total amount of aggregates formed.
The designed inhibitors were synthesized and tested in an in vitro Thioflavin T aggregation assay (FIG. 3).

[2] = tested on: cancer cell lines (OVCAR-3, CAOV-3, WiDr, Detroit 562) and primary cells from ovarian cancer patients; test: Cell entry and co-localization of FITC labeled inhibitor by fluorescence microscopy; assay type: cell-based, human; settings: 24 hours
Text: INH-1R CPP was covalently linked to a FITC fluorescent label and added to different cancer cell lines or primary cells directly obtained from ovarian cancer patients (as depicted here). […] The cell nuclei are stained with Hoechst 33342 (blue), while p53 is recognized by an anti-p53 antibody and stained in red. […] Protein aggregates are stained with the commercially available OC antibody (in red).
To render the inhibitors cell permeable, the inventors fused the peptide-inhibitor panel to a nine-residue poly arginine tag through a three-residue linker, of sequence RPI, derived from endogenous p53 sequence. To confirm their ability to enter cells, the cell penetrating INH-1R inhibitor was linked to a FITC moiety in order to detect the intracellular localization of the probe by fluorescence microscopy (FIG. 4). We treated different cancer cell lines, including but not limited to OVCAR-3, CAOV-3, WiDr, Detroit 562 as well as primary cells derived from cancer patients with the FITC labeled inhibitor for 24 hours. After extensive washes to remove unbound inhibitors, the cells were fixed in formaldehyde and p53 was stained using a commercially available p53 antibody. […] Additionally, the inhibitor was found co-localized with protein aggregates as stained by the conformation specific antibody OC (Kayed et al, 2007, FIG. 4B).

MCF-7 (WT p53) = test: p53 re-localization in WT p53 control cells; assay type: cell-based; settings: WT p53 bearing cells MCF 7
Text: The structure-guided, rationally designed p53 amyloid inhibitors of the invention specifically target those cancer cells bearing p53 molecules having an aberrant conformation (e.g. aggregated or misfolded p53). […] We then tested the inhibitor on established cancer cell lines as well as on primary cells derived from serous ovarian cancer patients in order to confirm the clinical relevance of our findings. Our inhibitor is designed to specifically target those tumor cells expressing an altered misfolded form of p53 and should have no effect on cells bearing functional, properly folded p53 or aggregation-incompetent p53 mutants. To confirm this, we included several controls. Three established cell lines, one bearing WT p53 (MCF-7) and two which were previously characterized for their p53 aggregation status, one with a non-aggregating mutation (WiDr) and one with a p53 aggregation prone mutation (Detroit 562), were used as negative and positive controls. One of the effects of the inhibitor was to cause re-localization of p53 from the cytosolic compartment to the nucleus (FIG. 5).

[3] = tested on: stable cell line derived from an ovarian cancer tumor (PA40 cells); test: p53 re-localization and refolding, DO-1 and PAb240 antibody stain; assay type: cell-based
Text: A stable cell line derived from an ovarian cancer tumor is stained with the commercially available DO-1 antibody which recognizes any p53, irrespective of its structural state. […] The PAb240 commercial antibody recognizes misfolded p53, therefore loss of PAb240 antigeneicity reflects a change in the p53 population from misfolded to properly folded, functionally capable protein.
(§1) Properly folded p53 is rapidly degraded in cells as a control mechanism. Misfolded/aggregated p53 cannot be efficiently targeted for degradation therefore protein levels are high in the absence of the inhibitor. This is additional evidence of the ability of the INH-1R to generate a population of folded p53.

OVCAR-3 cell lysates = test: p53 levels in cell lysates by Western Blot; assay type: cell-based; settings: 0, 1, 5 or 10 μM, 24 hours
Text: The properly folded p53 (see FIG. 6) can now be degraded as is WT p53. The hyperstability due to misfolding/aggregation is lost, and the protein turnover is fast.
as §1

[4] = tested on: cancer cells bearing misfolded/aggregation-prone mutant p53; test: Cell viability, standard MTS assay, 2D culture; assay type: cell-based; settings: 24 hours
Method: (§2) B. and C. show one representative case of primary cells from ovarian cancer.
INH-1R caused cell death in a dose dependent manner with less than 50% of cancer cells surviving after only 24 hours of treatment with a dose of 10 μM in a 2D culture system as detected by a standard MTS assay (FIG. 7A). […] In this case cells were plated in 1:1 mixture of PrEGM:matrigel. After cell layer solidified, cells were overlaid with warm PrEGM media containing either the inhibitor or a scrambled control peptide at concentration ranging from 0.1 to 10 μM for 5 to 7 days.

[5] = tested on: primary cells from ovarian cancer; test: Apoptosis (AnnexinV stain) and proliferation (Ki67 stain); assay type: cell-based; settings: increasing dosage
Text: as §2

OVCAR-3 cells [6] = test: Apoptosis and necrosis, combined Hoechst/PI/YO-PRO-1 stain; assay type: cell-based; settings: 24 hours
Method: OVCAR-3 cells were treated for 24 hours with the indicated concentrations of either INH-1R CPP or a scrambled inhibitor sequence. Hoechst (blue) stains all nuclei while YO-PRO-1 (green) only stains apoptotic cells and propidium iodide (red) stains late apoptotic/necrotic cells.

OVCAR-3 cells [7] = test: Cell death by FACS (cell size and granularity); assay type: cell-based; settings: 10 μM, 24 hours
Method: Cells treated for 24 hours with either INH-1R or a control peptide were trypsinized and analyzed by FACS.

[8] = tested on: p53 target genes p21 and Mdm2; test: Up-regulation of p53 target genes by QPCR or RNAseq; assay type: cell-based; settings: tumor cells with p53 misfolding/aggregating mutations
Text: Specificity and efficacy of INH-1R CPP was confirmed by up-regulation of p53 target genes only in tumor cells containing p53 misfolding/aggregating mutations.

[9] = tested on: OVCAR-3 cells bearing the aggregation prone p53 R248Q mutation (xenograft); test: OVCAR-3 xenograft tumor proliferation in vivo; design: species or system NOD/SCID mice
Method: A. Images of the xenografts from mice (n=3 for each group, one mouse had 2 xenografts) treated with INH-1R CPP, a scrambled peptide control, or vehicle for 14 days. […] C. Tumor volume was estimated daily.
In our in vivo studies, we attempted to mimic a post-surgical debulking situation in which patients with minimal residual tumor mass are administered chemotherapy. NOD/SCID mice were injected subcutaneously with OVCAR-3 cells bearing the aggregation prone p53 R248Q mutation and treated intraperitoneally with 15 mg/kg of either INH-1R as a single therapeutic agent, a control scrambled peptide, or vehicle daily for 14 days (FIG. 9).

[10] = Serum concentration by MRM mass spectrometry (pharmacokinetic profile); assay type: in vivo, Nude mice
Method: Nude mice were injected in the flank with OVCAR-3 cells and the resulting xenografts were allowed to grow for two weeks. The mice were then treated for three days via IP with 15 mg/kg of INH-1R CPP peptide or scrambled control peptide. They were divided in groups of two and sacrificed at 1, 2, 4, 8, 12 and 24 hours post final peptide injection. Two naïve mice were sacrificed before treatment to obtain a reference value. Peak serum concentration of INH-1R CPP (as well as control peptide) was detected at 1 hour post injection. Average of two mice are shown.
The peptide concentration decreased to approximately 0.3 μM 2 hours post infusion, and remained stable for up to 12 hours (FIG. 10). Given the relative stability of the peptide in serum, IV administration is an acceptable alternative route of administration.

Compound: CC[C@H](C)[C@H](NC(=O)[C@H](CCCNC(=N)N)NC(=O)[C@@H](NC(=O)[C@H](CC(C)C)NC(=O)[C@@H](NC(=O)[C@@H]1CCCN1C(=O)[C@H](CCCNC(=N)N)NC(=O)[C@H](CCCNC(=N)N)NC(=O)[C@H](CCCNC(=N)N)NC(=O)[C@H](CCCNC(=N)N)NC(=O)[C@H](CCCNC(=N)N)NC(=O)[C@H](CCCNC(=N)N)NC(=O)[C@H](CCCNC(=N)N)NC(=O)[C@H](CCCNC(=N)N)NC(=O)[C@H](CCCNC(=N)N)NC(=O)[C@@H](N)CCCNC(=N)N)[C@@H](C)CC)[C@@H](C)O)C(=O)N[C@H](C(=O)N[C@@H](CC(C)C)C(=O)N[C@@H](CCC(=O)O)C(=O)O)[C@@H](C)O [INH-1R]
- Inhibition of p53 aggregation (Thioflavin T fluorescence over time) [1]: delay the aggregation onset and lower the total amount of aggregates present, in a concentration dependent fashion; also recorded: delayed the onset of aggregation and lowered the amount of aggregates present at all concentrations tested
- Ability to enter cells (intracellular localization) [2]: able to penetrate the cell membrane, but also to actually enter the nucleus and co-localize with its target, p53
- Re-localization of p53 from cytosol to nucleus (MCF-7 (WT p53)): not observed
- Recognition of p53 by PAb240 (misfolded p53) [3]: failed to be recognized by the antibody PAb240
- Total amount of p53 (OVCAR-3 cell lysates): decreasing in a dose dependent manner
- Cancer cells surviving (cell viability, MTS) ([4]; 10 µM): less than 50%
- Apoptosis (AnnexinV stain) [5]: increase in apoptosis
- Cell proliferation (Ki67 stain) [5]: decrease in cell proliferation
- Apoptosis and necrosis (Hoechst/PI/YO-PRO-1 stain) (OVCAR-3 cells [6]): Apoptosis as well as necrosis were induced specifically
- Cell size and granularity (FACS) (OVCAR-3 cells [7]): a decrease in cell size and increase in granularity
- Up-regulation of p53 target genes [8]: up-regulation of p53 target genes only in tumor cells bearing aggregation-prone mutations
- p53 target genes MDM2 and p21 in residual tumor tissue ([9]; 15 mg/kg IP daily for 14 days): pronounced p21 and MDM2 activation
- Xenograft mass reduction in weight ([9]; 15 mg/kg intraperitoneally daily for 14 days): 75%

Compound: CC[C@H](C)[C@H](NC(=O)[C@H](CCCNC(=N)N)NC(=O)[C@@H](NC(=O)[C@H](CC(C)C)NC(=O)[C@@H](NC(=O)[C@@H]1CCCN1C(=O)[C@H](CCCNC(=N)N)NC(=O)[C@H](CCCNC(=N)N)NC(=O)[C@H](CCCNC(=N)N)NC(=O)[C@H](CCCNC(=N)N)NC(=O)[C@H](CCCNC(=N)N)NC(=O)[C@H](CCCNC(=N)N)NC(=O)[C@H](CCCNC(=N)N)NC(=O)[C@H](CCCNC(=N)N)NC(=O)[C@H](CCCNC(=N)N)NC(=O)[C@@H](N)CCCNC(=N)N)[C@@H](C)CC)[C@@H](C)O)C(=O)N[C@H](C(=O)N[C@@H](CC(C)C)C(=O)N[C@@H](CCC(=O)O)C(=O)O)[C@@H](C)O [INH-1R CPP, RRRRRRRRRRPILTRITLE]
- Cancer cells surviving (cell viability, MTS) ([4]; 10 μM, 2D culture): Dose dependent reduction of cell viability
- Time serum concentration remained stable ([10]; 15 mg/kg IP): up to 12 hours
- Tmax ([10]; nude, mouse, serum, 15 mg/kg IP for three days, read-out: Time of peak serum concentration post injection): 1 h
- Cmax ([10]; nude, mouse, serum, 15 mg/kg IP, 1 hour after injection, read-out: Serum peak concentration): ~1200 nM
- level at time molar at 2 h ([10]; nude, mouse, serum, 15 mg/kg IP, 2 hours, read-out: Serum concentration 2 hours post infusion): ~300 nM
